Activity calls are given as the source filed them.

Assay [1] is described as follows: THP-1 cell cytotoxicity, dose response, cytotoxicity control for non-replicating M. tuberculosis project (AID 489025). The class given is functional.
The nature of assay [2]: Vero E6 cell cytotoxicity, dose response, cytotoxicity control for non-replicating M. tuberculosis project, secondary assay (AID 492998). The class given is functional, VeroE6. To be noted: Vero C1008.
The nature of assay [3]: viability of HCT116 lacking mutant beta-catenin – cell-based, human colon tumor, dose response (AID 1045).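 Further: HCT116 colon tumor cells with beta catenin knocked out; cells exposed to compound for 60 hours.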 The class given is functional.
Assay [4] can be described thus: cells. In kind it is functional.
Assay [5] in a line: viability of PTEN-deleted HCT116 cells – cell-based, HCT116 PTEN knockout, dose response (AID 1047).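 Further: HCT116 colon tumor cells with PTEN knocked out; cells exposed to compound for 60 hours before readout; potency for loss of cell viability measured by luminescence.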 The class given is functional.
Assay [6] in a line: microbe, parasite or virus in culture. The class given is functional. The conditions noted are these: Mycobacterium tuberculosis.
Assay [7] in a line: HIV-1 Vif–A3G interaction blockers – biochemical, TR-FRET, GST-Vif 1-94, biotin-A3G peptide, dose response retest, primary screen (AID 1117319).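 Further: TR-FRET signal of purified GST-Vif binding a biotinylated A3G peptide; inhibitors lower the FRET signal by blocking Vif and A3G binding.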 In kind it is functional.
Assay [8] in a line: viability loss in THP-1 monocytes – THP-1 cells, cytotoxicity control for Vif-APOBEC3G degradation inhibitor project, dose response (AID 1117359). The class given is functional. The conditions noted are these: THP-1.
The target in assay [9] is Peroxisome proliferator-activated receptor gamma/Nuclear receptor coactivator 2 (Homo sapiens, UniProt P37231). Put plainly: TR-FRET dose response biochemical High Throughput Screening assay for agonists of the steroid receptor coactivator 2 (SRC-2) recruitment by the peroxisome proliferator-activated receptor gamma (PPAR gamma): non-selective agonists. [Related pubchem assays: 1297, 1032 ]. The class given is functional. In general terms: In TR-FRET formats the signal depends on donor and acceptor labels being close together.
Chain of Peroxisome proliferator-activated receptor gamma/Nuclear receptor coactivator 2 (P37231 whole entry): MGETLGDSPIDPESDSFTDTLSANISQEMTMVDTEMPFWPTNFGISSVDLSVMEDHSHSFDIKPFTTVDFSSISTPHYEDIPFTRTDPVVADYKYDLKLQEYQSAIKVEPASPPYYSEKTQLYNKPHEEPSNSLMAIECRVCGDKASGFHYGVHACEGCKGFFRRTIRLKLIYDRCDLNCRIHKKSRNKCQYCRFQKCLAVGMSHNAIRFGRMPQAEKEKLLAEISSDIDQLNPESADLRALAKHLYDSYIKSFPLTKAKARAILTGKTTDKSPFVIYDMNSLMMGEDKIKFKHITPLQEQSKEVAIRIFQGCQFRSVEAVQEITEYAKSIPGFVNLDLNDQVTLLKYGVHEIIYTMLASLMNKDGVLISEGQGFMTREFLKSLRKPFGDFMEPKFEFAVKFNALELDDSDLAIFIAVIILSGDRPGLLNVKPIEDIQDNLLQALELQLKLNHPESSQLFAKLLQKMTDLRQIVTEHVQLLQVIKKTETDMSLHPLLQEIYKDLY
Chain of Peroxisome proliferator-activated receptor gamma/Nuclear receptor coactivator 2 (Q15596 whole entry, further chain): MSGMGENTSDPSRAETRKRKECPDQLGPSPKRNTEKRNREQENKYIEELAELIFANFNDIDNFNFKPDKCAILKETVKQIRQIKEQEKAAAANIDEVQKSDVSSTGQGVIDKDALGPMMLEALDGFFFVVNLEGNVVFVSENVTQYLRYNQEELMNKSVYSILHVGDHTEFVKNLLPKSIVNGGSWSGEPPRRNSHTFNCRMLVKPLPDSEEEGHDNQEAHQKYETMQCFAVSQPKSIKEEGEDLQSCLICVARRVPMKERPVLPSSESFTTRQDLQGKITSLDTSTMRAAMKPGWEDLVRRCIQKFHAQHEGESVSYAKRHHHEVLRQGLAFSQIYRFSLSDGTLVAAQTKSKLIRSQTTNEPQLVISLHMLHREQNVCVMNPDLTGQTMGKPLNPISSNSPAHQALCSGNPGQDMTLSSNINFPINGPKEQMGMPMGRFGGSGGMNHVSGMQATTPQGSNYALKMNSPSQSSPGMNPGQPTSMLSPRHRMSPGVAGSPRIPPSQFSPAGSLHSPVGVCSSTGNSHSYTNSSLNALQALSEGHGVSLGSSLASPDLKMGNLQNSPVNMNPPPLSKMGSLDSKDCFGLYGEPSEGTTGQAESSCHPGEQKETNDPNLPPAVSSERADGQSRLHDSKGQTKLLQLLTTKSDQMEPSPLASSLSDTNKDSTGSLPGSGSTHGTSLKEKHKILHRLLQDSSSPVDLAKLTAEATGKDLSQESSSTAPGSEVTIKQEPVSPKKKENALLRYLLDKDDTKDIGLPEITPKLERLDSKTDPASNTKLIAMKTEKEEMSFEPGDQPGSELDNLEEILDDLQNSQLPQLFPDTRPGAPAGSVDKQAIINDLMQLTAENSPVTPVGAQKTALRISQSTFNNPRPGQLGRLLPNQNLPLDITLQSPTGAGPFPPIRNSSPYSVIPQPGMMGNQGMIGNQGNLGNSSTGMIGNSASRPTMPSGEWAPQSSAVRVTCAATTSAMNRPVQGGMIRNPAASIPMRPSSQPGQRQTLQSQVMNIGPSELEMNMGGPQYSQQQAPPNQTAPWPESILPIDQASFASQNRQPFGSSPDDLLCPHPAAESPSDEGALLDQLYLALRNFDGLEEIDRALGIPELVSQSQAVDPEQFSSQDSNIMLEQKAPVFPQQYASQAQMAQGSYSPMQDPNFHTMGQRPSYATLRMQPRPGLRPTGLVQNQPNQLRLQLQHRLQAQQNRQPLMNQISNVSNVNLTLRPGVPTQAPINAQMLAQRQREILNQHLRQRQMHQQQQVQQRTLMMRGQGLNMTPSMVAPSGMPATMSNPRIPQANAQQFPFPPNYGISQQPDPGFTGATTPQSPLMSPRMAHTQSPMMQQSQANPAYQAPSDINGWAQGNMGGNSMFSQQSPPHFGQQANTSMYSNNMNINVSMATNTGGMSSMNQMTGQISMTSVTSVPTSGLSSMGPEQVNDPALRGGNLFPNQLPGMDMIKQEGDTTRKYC

Assay [10] addresses Peroxisome proliferator-activated receptor gamma/Nuclear receptor coactivator 3 (Homo sapiens, UniProt P37231). Put plainly: TR-FRET dose response biochemical High Throughput Screening assay for agonists of the steroid receptor coactivator 3 (SRC-3) recruitment by the peroxisome proliferator-activated receptor gamma (PPAR gamma): non-selective agonists. [Related pubchem assays: 1301 (Confirmation screen.), 1048 (Primary screen.)]. The class given is functional.

For assay [11], the target named is Peroxisome proliferator-activated receptor gamma/Nuclear receptor coactivator 1 (Homo sapiens, UniProt P37231). The experiment in a line: TR-FRET dose response biochemical High Throughput Screening assay for agonists of the steroid receptor coactivator 1 (SRC-1) recruitment by the peroxisome proliferator-activated receptor gamma (PPAR gamma): non-selective agonists. [Related pubchem assays (depositor defined):AID1300, AID1808, AID504735, AID631]. The class given is protein assay.
Chain of Peroxisome proliferator-activated receptor gamma/Nuclear receptor coactivator 1 (P37231 whole entry): as the sequence (P37231 whole entry) above
Chain of Peroxisome proliferator-activated receptor gamma/Nuclear receptor coactivator 1 (Q15788 whole entry, further chain): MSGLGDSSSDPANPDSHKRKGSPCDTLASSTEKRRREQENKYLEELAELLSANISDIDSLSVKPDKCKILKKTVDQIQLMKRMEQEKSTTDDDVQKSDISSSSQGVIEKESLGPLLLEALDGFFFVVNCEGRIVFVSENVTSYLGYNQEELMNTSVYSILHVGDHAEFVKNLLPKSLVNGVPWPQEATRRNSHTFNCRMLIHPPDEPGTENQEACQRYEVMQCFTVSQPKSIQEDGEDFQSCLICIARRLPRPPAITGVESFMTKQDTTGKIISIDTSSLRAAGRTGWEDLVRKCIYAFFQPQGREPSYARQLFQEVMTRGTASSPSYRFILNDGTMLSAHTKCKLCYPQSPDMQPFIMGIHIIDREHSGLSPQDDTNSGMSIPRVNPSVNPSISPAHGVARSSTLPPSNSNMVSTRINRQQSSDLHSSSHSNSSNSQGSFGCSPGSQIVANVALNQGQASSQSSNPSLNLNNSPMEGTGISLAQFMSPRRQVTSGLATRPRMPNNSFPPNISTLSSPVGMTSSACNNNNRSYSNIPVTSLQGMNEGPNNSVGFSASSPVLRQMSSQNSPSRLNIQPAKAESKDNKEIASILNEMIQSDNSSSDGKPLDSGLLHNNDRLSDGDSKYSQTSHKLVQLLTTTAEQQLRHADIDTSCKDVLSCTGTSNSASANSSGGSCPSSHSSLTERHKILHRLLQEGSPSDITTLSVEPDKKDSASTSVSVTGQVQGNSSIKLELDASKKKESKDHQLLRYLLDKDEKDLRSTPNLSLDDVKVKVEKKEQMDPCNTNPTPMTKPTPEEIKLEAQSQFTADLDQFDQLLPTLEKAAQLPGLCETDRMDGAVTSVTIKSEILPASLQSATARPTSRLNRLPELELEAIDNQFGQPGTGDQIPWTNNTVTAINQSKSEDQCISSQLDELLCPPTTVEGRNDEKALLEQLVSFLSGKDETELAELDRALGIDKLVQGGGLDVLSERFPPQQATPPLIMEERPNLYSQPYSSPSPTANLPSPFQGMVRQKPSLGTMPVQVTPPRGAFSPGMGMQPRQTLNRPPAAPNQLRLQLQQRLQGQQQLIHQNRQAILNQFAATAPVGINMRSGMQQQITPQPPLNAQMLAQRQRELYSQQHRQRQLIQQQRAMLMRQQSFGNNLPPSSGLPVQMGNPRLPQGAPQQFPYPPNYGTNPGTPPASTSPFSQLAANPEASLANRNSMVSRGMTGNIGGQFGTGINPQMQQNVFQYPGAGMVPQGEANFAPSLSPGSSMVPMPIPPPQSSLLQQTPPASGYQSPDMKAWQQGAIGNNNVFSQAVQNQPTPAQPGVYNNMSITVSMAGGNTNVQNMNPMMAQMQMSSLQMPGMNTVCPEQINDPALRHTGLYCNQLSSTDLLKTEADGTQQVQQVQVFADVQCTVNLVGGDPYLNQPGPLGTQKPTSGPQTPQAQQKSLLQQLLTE

In assay [12] the target is T1, Nuclear receptor subfamily 0 group B member 1 (Homo sapiens, UniProt P51843).
T1 sequence (P51843 whole entry): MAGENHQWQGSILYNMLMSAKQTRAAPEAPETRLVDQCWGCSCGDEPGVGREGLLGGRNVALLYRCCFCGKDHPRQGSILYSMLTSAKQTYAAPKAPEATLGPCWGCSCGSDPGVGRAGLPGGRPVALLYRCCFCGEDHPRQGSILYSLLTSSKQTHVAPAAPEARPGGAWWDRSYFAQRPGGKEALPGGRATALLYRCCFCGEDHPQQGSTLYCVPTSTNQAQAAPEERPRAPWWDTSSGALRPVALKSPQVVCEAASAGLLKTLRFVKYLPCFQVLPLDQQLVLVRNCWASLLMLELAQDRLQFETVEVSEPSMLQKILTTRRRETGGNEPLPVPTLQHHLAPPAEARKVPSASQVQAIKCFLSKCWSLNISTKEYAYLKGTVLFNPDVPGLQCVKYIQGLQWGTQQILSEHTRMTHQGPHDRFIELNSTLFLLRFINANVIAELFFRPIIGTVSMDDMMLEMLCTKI
Put plainly: Luminescence-based cell-based high throughput dose response assay for inhibitors of the orphan nuclear receptor subfamily 0, group B, member 1 (DAX1; NR0B1). [Related pubchem assays (depositor defined):AID504766, AID504790]. The class given is functional.

In assay [13] the test system is HEK293. The experiment in a line: cells. The class given is functional, cell-based. To be noted: Homo sapiens.
Assay [14] deals with T2, Mannose-6-phosphate isomerase (Homo sapiens, UniProt P34949).
T2 sequence (P34949 whole entry): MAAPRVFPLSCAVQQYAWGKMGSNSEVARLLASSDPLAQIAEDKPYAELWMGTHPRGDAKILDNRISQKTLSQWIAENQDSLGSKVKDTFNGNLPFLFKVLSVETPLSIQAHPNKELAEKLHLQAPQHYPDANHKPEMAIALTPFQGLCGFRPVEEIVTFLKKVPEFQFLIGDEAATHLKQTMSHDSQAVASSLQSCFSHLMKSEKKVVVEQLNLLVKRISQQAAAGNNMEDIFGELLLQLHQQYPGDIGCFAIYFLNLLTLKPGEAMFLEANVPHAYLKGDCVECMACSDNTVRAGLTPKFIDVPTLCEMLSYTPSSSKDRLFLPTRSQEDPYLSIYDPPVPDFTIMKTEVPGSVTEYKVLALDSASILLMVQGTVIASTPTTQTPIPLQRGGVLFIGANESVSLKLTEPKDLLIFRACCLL
Put plainly: MPI inhibition at elevated mannose 6-phosphate – biochemical, fluorescence intensity, high mannose 6-phosphate, primary screen (AID 1220).

Assay [15] deals with T3, Leucine aminopeptidase (Plasmodium falciparum 3D7, UniProt Q8IL11).
T3 sequence (Q8IL11 whole entry): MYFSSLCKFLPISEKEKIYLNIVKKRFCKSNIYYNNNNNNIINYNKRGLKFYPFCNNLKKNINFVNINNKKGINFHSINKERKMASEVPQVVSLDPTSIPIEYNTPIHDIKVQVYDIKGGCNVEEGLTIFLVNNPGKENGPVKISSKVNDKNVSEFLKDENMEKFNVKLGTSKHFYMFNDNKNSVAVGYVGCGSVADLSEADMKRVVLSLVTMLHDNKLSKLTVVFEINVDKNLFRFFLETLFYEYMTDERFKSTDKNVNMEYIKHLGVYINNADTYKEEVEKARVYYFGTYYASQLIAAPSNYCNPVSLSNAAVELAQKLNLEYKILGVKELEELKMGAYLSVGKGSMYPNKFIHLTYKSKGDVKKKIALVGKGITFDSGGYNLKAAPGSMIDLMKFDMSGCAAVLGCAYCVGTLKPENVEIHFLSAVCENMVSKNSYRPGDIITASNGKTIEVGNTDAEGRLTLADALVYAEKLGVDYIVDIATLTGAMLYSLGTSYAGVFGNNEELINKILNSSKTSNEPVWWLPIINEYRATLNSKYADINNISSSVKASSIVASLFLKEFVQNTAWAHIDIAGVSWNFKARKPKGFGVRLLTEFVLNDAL
The experiment in a line: P. falciparum M17LAP inhibitors, primary screen, biochemical, fluorogenic H-Leu-NHMec substrate, 1536-well (AID 1619). The class given is functional.

In assay [16] the target is T4, Rac GTPase-activating protein 1 (Homo sapiens, UniProt Q9H0H5).
T4 sequence (Q9H0H5 whole entry): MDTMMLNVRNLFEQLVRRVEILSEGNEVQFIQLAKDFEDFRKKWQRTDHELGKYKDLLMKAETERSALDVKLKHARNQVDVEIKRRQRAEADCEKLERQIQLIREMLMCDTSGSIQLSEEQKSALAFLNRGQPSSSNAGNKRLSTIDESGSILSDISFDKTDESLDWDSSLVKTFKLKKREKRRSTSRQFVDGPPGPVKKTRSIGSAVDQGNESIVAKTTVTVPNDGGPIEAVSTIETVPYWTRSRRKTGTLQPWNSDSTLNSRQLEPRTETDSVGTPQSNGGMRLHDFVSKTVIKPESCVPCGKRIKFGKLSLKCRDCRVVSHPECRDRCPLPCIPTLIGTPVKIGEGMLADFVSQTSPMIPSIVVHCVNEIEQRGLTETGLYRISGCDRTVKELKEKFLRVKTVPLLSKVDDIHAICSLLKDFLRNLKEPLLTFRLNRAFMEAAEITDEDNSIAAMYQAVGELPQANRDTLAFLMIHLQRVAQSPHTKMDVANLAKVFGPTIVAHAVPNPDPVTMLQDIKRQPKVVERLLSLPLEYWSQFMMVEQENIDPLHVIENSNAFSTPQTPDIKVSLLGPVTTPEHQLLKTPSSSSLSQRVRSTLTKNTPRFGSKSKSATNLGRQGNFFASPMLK
The experiment in a line: blockers of MgcRacGAP-driven Rac1 GTP hydrolysis – biochemical, ADP Hunter fluorescence, primary and confirmatory, confirmation (AID 624330). In kind it is functional.

For assay [17], the target named is T5, Aminopeptidase N (Plasmodium falciparum FcB1/Columbia, UniProt O96935).
T5 sequence (O96935 whole entry): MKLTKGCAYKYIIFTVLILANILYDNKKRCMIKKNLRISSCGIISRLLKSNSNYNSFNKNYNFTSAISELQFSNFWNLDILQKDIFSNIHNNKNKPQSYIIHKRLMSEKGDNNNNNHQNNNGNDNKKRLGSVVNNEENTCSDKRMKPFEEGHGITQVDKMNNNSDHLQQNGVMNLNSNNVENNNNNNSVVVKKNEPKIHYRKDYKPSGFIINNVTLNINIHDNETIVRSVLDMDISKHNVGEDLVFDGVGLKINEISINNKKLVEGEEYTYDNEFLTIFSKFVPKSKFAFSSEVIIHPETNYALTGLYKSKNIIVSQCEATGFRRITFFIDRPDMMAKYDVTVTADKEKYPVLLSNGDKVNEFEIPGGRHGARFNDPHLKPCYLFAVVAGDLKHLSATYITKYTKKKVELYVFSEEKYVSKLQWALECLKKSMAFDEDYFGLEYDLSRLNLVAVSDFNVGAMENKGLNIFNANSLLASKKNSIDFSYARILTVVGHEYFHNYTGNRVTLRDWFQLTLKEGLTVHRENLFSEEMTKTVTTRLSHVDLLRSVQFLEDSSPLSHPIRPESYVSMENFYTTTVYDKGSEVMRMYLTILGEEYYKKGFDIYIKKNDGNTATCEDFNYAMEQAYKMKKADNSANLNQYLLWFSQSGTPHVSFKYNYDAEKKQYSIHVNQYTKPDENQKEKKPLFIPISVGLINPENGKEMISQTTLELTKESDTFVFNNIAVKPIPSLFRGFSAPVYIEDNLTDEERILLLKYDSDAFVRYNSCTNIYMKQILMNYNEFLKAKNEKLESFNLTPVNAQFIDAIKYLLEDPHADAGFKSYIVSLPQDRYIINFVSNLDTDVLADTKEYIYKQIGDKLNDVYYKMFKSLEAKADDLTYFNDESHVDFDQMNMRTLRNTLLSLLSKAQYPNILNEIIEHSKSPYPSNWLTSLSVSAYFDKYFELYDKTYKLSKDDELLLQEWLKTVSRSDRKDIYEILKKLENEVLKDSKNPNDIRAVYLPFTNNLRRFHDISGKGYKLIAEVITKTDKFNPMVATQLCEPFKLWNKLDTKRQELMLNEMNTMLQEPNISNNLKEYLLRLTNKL
Put plainly: malaria alanyl aminopeptidase activity blockers – biochemical, fluorogenic H-Leu-NHMec substrate, 1536-well (AID 1445). Also on record: species or system Plasmodium falciparum 3D7, 3D7.

Assay [18] has as its target Genome polyprotein (dengue virus type 2, UniProt P29990). Put plainly: flavivirus cap methylation enzyme inhibition – biochemical, confirmation dose response, primary screen (AID 588689). In kind it is functional.
Assay [19] concerns the target FAD-linked sulfhydryl oxidase ALR (Homo sapiens, UniProt P55789). The experiment in a line: ALR-catalysed DTT oxidation blockers – biochemical, H2O2 detection, luminescence, cherry-pick, dose response (AID 493248).

Chain of Genome polyprotein (P29990 2492-3391 limits assumed): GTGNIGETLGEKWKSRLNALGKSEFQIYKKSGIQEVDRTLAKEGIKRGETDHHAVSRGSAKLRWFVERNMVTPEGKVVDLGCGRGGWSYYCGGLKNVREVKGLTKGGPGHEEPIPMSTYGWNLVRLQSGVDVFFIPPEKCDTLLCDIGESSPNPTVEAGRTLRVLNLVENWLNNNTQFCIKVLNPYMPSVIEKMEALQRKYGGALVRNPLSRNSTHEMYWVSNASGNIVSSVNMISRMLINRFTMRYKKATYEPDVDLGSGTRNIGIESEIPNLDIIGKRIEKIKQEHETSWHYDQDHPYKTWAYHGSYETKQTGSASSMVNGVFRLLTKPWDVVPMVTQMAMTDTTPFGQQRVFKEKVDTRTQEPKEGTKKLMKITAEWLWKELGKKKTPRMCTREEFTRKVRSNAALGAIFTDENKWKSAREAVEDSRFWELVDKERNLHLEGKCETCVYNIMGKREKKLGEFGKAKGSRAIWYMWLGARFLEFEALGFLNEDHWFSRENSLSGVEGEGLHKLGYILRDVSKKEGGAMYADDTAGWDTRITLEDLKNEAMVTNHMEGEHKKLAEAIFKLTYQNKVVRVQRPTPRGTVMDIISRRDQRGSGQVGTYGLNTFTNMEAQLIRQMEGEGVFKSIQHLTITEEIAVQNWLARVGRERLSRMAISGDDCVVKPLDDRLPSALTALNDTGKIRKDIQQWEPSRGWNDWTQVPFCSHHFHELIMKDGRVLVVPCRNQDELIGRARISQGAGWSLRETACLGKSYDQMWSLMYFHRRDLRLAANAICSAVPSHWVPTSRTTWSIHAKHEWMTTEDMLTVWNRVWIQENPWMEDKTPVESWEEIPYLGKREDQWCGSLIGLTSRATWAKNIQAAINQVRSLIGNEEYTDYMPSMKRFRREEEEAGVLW
Chain of FAD-linked sulfhydryl oxidase ALR (P55789 whole entry): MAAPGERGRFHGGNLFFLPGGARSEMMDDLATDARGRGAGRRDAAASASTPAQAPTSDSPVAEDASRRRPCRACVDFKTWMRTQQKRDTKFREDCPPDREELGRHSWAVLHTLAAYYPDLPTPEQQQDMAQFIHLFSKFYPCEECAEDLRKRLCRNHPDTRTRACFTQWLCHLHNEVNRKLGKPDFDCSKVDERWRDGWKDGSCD

Turning to `Cc1cc(NC(=O)C2CCCCC2)n(-c2nc3ccccc3[nH]2)n1`, the CC50 was > 40 µM (active) in [1] and > 20 µM (active) in assay [2]. The half-maximal effective concentration (EC50) (in general, the concentration at which the effect is half-maximal) in [3] was 13.6 µM (active); in [5], 16.9 µM (active). The concentration for half-maximal inhibition (IC50) (in general, the concentration that inhibits the measured activity by half) in assay [4] is 5.56 µM (active).

Consider `O=C(CCN1C(=O)/C(=C/c2ccccc2Cl)SC1=S)N1CCCC1`, for which the CC50 in [1] is 19.7 µM (active); in assay [2], 11.4 µM (active); in assay [6], 8.2 µM (active). Also, the IC50 in assay [4] was 28.4 µM (active).

Take `COc1ccc(NC(=O)/C(C#N)=C/c2ccc(Sc3nncn3C)c([N+](=O)[O-])c2)cc1`: the half-inhibitory concentration (IC50) in assay [7] is > 100 µM (active). Besides, the CC50 in [8] is > 40 µM (active).

For the compound `CC(Sc1nc(N2CCCCC2)c2c(c1C#N)CCCC2)C(=O)O` (stereo unspecified), the figures for the EC50 in assay [9], in assay [10] and in assay [11] were 64.9 µM (not active), > 79.4 µM (not active) and 33.9 µM (inactive), respectively.

As for `COc1ccc([N+](=O)[O-])cc1NC(=S)NC(C)=O`, the IC50 in assay [12] and in [13] was > 67.6 µM (inactive) throughout.

On to `Cc1cc(=O)c2c(O)c(O)ccc2o1`, for which the concentration for half-maximal inhibition (IC50) in assay [14] is > 50 µM (not active); in assay [7] it was > 100 µM (active); in assay [15], 110 µM (active); in assay [16] it was 32.2 µM (active).

Turning to `COc1ccccc1NC(=O)N1CCCC(C(=O)Nc2cccc(C)c2C)C1` (stereo unspecified), the IC50 in assay [12] and in [13] was > 67.6 µM (inactive) throughout.

With `CCc1c(C)c2ccc(O)c(CN(C)C)c2oc1=O`, the IC50 in assay [17] was 28.9 µM (active).

Regarding `O=C(O)COc1ccccc1/C=N/Nc1ccc(S(=O)(=O)Nc2ccc(Cl)cc2)cc1[N+](=O)[O-]`, the results for the IC50 in assay [17] and in assay [18] were 38.9 µM (active) and 36.7 µM (active), respectively.

Turning to `C#CCOC(=O)C[N+](C)(C)CC#Cc1ccccc1`, the IC50 in [12] and in [13] was > 67.6 µM (inactive) throughout.

Turning to `COc1ccc(Br)cc1-c1nc(CCl)cs1`, the EC50 in [9] is 5.52 µM (active); in [10] it was > 79.4 µM (not active); in assay [11], 9.93 µM (active). Further, the half-maximal activity concentration (AC50) (as a rule, the midpoint of the concentration-response curve, whichever way the signal moves) in assay [19] was 14.1 µM (active).

The values are drawn from ChEMBL document CHEMBL1201862, “PubChem BioAssay data set” (2004).
